Consider 4 compounds from patent US9186356B2, “Methods for treating frontotemporal lobar degeneration with ubiquitinated inclusions (FTLD-U)” (Academia Sinica, priority 2011, dated 2015).

Structures are written as SMILES.

For one data set, the system named is FTLD-U mice. Briefly: Motor function of FTLD-U mice treated with other autophagy inducers (FIG. 5). It is filed as in vivo. As to conditions: tamoxifen 80 mg/Kg s.c. once per day one week, carbamazepine 50 mg/Kg i.p. once per day two weeks, spermidine 50 mg/Kg i.p. once per day one week. The procedure:
Other autophage inducers for administration to the FTLD-U mice include tamoxifen, carbamazepine, calpastatin, minoxidial, spermidine and trehalose. […] Carbamazepine can lower inositol and IP3 levels. Calpastatin is a calpain inhibitor. Minoxidial is a K^+ATP channel opener. Spermidine can decrease ROS and increases beclin 1. The effect of trehalose is unknown. Tamoxifen (80 mg/Kg) was administered via subcutaneous injection, once per day for one week. carbamazepine (50 mg/Kg) was administered i.p. once per day for two weeks. Spermidine (50 mg/Kg) was administered i.p. once per day for one week.

The next data set deals with ALS mice (SOD1G93A). As to conditions: cited from earlier work.

Regarding `NC(=O)N1c2ccccc2C=Cc2ccccc21` [carbamazepine], in the data set on FTLD-U mice, the motor function deficits result is on record as “rescued the motor function deficits”.
Turning to `CC/C(=C(\c1ccccc1)c1ccc(OCCN(C)C)cc1)c1ccccc1` [tamoxifen], the motor function deficits result in the data set on FTLD-U mice is “rescued the motor function deficits”.
Still for that read-out and setting: as for `NCCCCNCCCN` [spermidine], the entry is “rescued the motor function deficits”.
Turning to `CO[C@H]1C[C@@H]2CC[C@@H](C)[C@@](O)(O2)C(=O)C(=O)N2CCCC[C@H]2C(=O)O[C@H]([C@H](C)C[C@@H]2CC[C@@H](O)[C@H](OC)C2)CC(=O)[C@H](C)/C=C(\C)[C@@H](O)[C@@H](OC)C(=O)[C@H](C)C[C@H](C)/C=C/C=C/C=C/1C` [rapamycin], in the data set on ALS mice (SOD1G93A), the mitochondria impairment result is on record as “more server mitochondria impairment”.
